Measured values reported in patent US9764014B2, “Use of toll-like receptor ligands as adjuvants to vaccination therapy for brain tumors” (Cedars-Sinai Medical Center, priority 2008, dated 2017).

Experiments:
BMDC = assay: IL-6, TNF-α and IL-12 ELISA of BMDC activated by GL26 lysate vs. TLR ligands; type: cell-based, C57BL/6 mice; settings: FIG. 9 bottom panel, GL26 lysate plus TLR ligand
Description: Experiments were performed with at least three replicates per condition. As controls for these experiments the inventors utilized brain tissue lysate obtained from healthy C57BL/6 mice and untreated DCs. Furthermore, for each TLR ligand, the inventors utilized up to three different concentrations previously shown to activate dendritic cells in order to identify the best concentration for maximal activation of BMDC. […] However, TLR ligands alone consistently promote increases the dependent variables measured to a greater degree than TLR ligands with tumor lysate. However, it is likely that activation by TLR ligands alone would not prime T cells to be tumor antigen specific. […] Therefore, ELISA on BMDC treated with GL26 lysate and individual TLR ligands were performed as described above. […] TNF-α and IL-12 (FIG. 9).
Primary BMDCs were isolated from the femurs of 6-10 week old C57BL/6 mice and cultured in RPMI cell culture media with GM-CSF (1000 IU/ML) and IL-4 (1000 IU/ML). BMDCs (1×10^6 cells/ml) were maintained in cell culture at 37° C., 5% CO2 and exposed to with […] GL26 freeze-thaw lysate and either TLR2 ligand (Pam3Cys, 50 μg/ml), TLR4 ligand (LPS 50 ng/ml), or TLR9 ligand (CpG ODN 1826, 5 μM) overnight (ON). Control cells were treated with […] GL26 freeze-thaw lysate only. […]

primary BMDC = assay: IL-6 ELISA from primary BMDC derived from MyD88−/− and littermate controls; type: cell-based, mice; settings: MyD88−/− DC compared to BMDC from wild-type littermate controls; LPS 100 ng/ml or 10 ng/ml with GL26 lysate
Description: Briefly, BMDCs were cultured in 24-well plates at 3×10^5 cells/ml and exposed to TLR ligands and lysate for 24 hours. Cell culture media were collected for ELISA analysis against IL-6, TNF-α and IL-12. Three independent experiments with at least three replicates per experiment were performed.
While the inventors provide evidence that GL26 tumor cells and TLR ligands activate primary BMDC. […] It is possible that the GL26 tumor cell activation is signaling through TLRs or at least through downstream signaling molecule MyD88. Therefore, primary dendritic cells from MyD88−/− and Wild-type controls were isolated and exposed to GL26 lysate and TLR ligand LPS at 100 ng/ml or 10 ng/ml. The inventors believe that LPS activation in MyD88−/− DC will not show up-regulation of secreted IL-6 protein as measured by ELISA. […] Furthermore, no significant difference exists between MyD88−/− and wild-type derived BMDC exposed to brain lysate (FIG. 10).
Primary BMDCs were isolated from the bone marrow of femurs of euthanized MyD88−/− and their +/+ littermate controls as described above. BMDCs were activated using 1) GL26 tumor lysate alone; 2) TLR ligands (Pam3cys (50 μg/ml) or LPS (50 ng/ml) or CpG ODN (5 μM) and tumor lysate for each; 3) Treatment of DCs with brain lysate alone may also serves as a control condition.

[1] = test system: primary dendritic cells from MyD88−/− and wild-type controls; assay: ELISA for TNF-alpha in primary DC treated with LPS; type: cell-based, mice
Source text: While the inventors provide evidence that GL26 tumor cells and TLR ligands activate DC2.4 cells, it is unknown if GL26 lysate activation is signaling through MyD88−/− and/or TRIF dependent pathways. It is possible that the GL26 tumor cell activation is signaling through TLRs or at least through downstream signaling molecules MyD88 and/or TRIF. Therefore, the inventors isolated primary dendritic cells from MyD88−/− and wild-type controls and exposed them to GL26 lysate and TLR ligand LPS. The inventors believe that LPS activation in MyD88−/− DC will not show up-regulation of TNF-alpha protein as measured by ELISA.

Row | Substance | IL-12 protein production (BMDC) | IL-6 secreted protein levels by ELISA (primary BMDC) | TNF-alpha protein by ELISA ([1]; MyD88−/− DC) | TNF-alpha protein by ELISA ([1]; wild-type DCs, compared to controls)
1 | Pam3cys | relatively limited increases |  |  | 
2 | lipopolysaccharide [LPS] |  | reduced | no up-regulation | significant up-regulations
